Experimental data: patent US4939156A (priority 1987, dated 1990)
In brackets after ≈: the same amount, converted by molar mass.

Tests used:
[1] = system: vesicular stomatitis virus (VSV) New Jersey strain; experiment: microbe, parasite or virus in culture; type: cell-based; conditions: for IC50: Vesicular stomatitis virus, L929, 48 h, read-out: Inhibitory Concentration (IC50) which inhibited by 50% the denaturation of Virus No. 3 infested L-929 cell; for Quotient of minimum denaturation concentration divided by IC50, Virus No. 3: figures in brackets, L-929 cell, VSV, 2880 min
[2] = system: Newcastle disease virus (NDV) Miyadera strain; experiment: microbe, parasite or virus in culture; type: cell-based; conditions: for IC50: avian paramyxovirus 1, 48 h, read-out: Inhibitory Concentration (IC50) which inhibited by 50% the denaturation of Virus No. 2 infested HeLa-Y cell; for Quotient of minimum denaturation concentration divided by IC50, Virus No. 2: figures in brackets, HeLa-Y cell, NDV, 2880 min
in vitro [3] = conditions: mouse, l-929 cells
[4] = system: human premyelocytic leukemia cells (HL-60); experiment: NBT-reducing ability (differentiation) of HL-60 cells after treatment with test compound; type: cell-based; conditions: 0.1% NBT, 37° C., 20 minutes
Protocol: (§1) The human premyelocytic elukemia cells (HL-60 cell) are characterized by the ability to respond to pharmacological inducers of differentiation and can produce the normal granulocytes when they have been differentiated, as described in the "Blood" Vol. 54, No. 3, 713-733 (1979).
(§2) Thus, firstly the cell differentiation-inducing activity of the compound was assayed by the following procedure described in said "Blood". Namely, HL-60 cells were incubated by passing successively through RPMI 1640 media supplemented with 10% FCS (fetal calf serum), followed by adding the test compound at varying concentrations to aliquots of the culture of the HL-60 cells at the logarithmic phase of growth. The HL-60 cells thus incubated were further incubated in the presence of the test compound for 6 days and subsequently fixed to slide glasses. The fixed HL-60 cells were stained with May-Gruenwald-Giemsa's reagent and the morphology of the nuclei in the stained cells was examined to judge which of the cells has been differentiated into the normal granulocytes. Then, the number of the HL-60 cells which had propagated were counted.
Secondly, the another aliquot of the culture of the HL-60 cells which were incubated in the above procedure in the presence of the test compound at its evaluated "IC50 " concentration was centrifuged to collect the cells, which were then diluted with a volume of RPMI 1640 medium supplemented with 10% FCS, to provide a given concentration of the cells. Subsequently, the cells which were diluted with said medium were added and mixed with 0.1% of NBT and then incubated at 37° C. for 20 minutes. The number of the cells which stained black color owing to the involved reduction of NBT and which could be judged to have the ability to reduce NBT was counted.

[5] = system: Influenza virus A/PR/8/34 strain; experiment: Antiviral activity, Virus No. 1 infested MDCK cell; type: cell-based; conditions: for IC50: PR/8, MDCK, 48 h, read-out: Inhibitory Concentration (IC50) which inhibited by 50% the denaturation of Virus No. 1 infested MDCK cell; for Quotient of minimum denaturation concentration divided by IC50, Virus No. 1: figures in brackets, MDCK cell, Influenza virus, 2880 min
[6] = system: Vaccinia virus Lister strain; experiment: organism not typed; type: cell-based; conditions: for IC50: 48 h, read-out: Inhibitory Concentration (IC50) which inhibited by 50% the denaturation of Virus No. 4 infested HeLa-Y cell; for Quotient of minimum denaturation concentration divided by IC50, Virus No. 4: figures in brackets, HeLa-Y cell, Vaccinia virus, 2880 min
in vitro [7] = conditions: monkey, vero cells
[8] = system: Herpes simplex virus (HSV) Type 2 196 strain; experiment: Antiviral activity, Virus No. 5 infested Vero cell; type: cell-based; conditions: for IC50: 48 h, HSV Type 2, Vero cell, read-out: Inhibitory Concentration (IC50) which inhibited by 50% the denaturation of Virus No. 5 infested Vello cell; for Quotient of minimum denaturation concentration divided by IC50, Virus No. 5: figures in brackets, Vero cell, HSV Type 2
in vitro [9] = conditions: human, hela-y cells
in vitro [10] = conditions: dog, mdck
[11] = system: human premyelocytic leukemia cells (HL-60); experiment: 50% inhibition of propagation of undifferentiated human premyelocytic leukemia HL-60 cells; type: cell-based; conditions: 144 h, 6 days incubation, read-out: Activity of test compound to inhibit by 50% the undifferentiated propagation of HL-60 cells (IC50)
Protocol: as §1, §2
As said "IC50 " concentration of the test compound was assumed such concentration of the test compound at which the counted number of the HL-60 cells having propagated was reduced by 50%, as compared to that counted in the control tests where the test compound was not used.

mice = experiment: Acute toxicity in mice given i.p.; type: in vivo; conditions: twice a day, 4 days, counted at 5th day
Protocol: For estimation of toxicity of the new compounds of this invention for mammalian animals, acute toxicity of the TI-27 Substance of Example 1 as a representative example was tested by intraperitoneal administration of a suspension of 25 mg/ml of TI-27 substance in a 0.5% aqueous solution of carboxymethyl cellulose (CMC) to mice (five in each group). The TI-27 substance was given to mice twice a day at a unit dosage of 5 mg, 1.25 mg, 0.313 mg, 0.078 mg or 0.02 mg per mouse for consecutive 4 days, totally 8 times. The number of the surviving mice which tolerated the administration of TI-27 Substance was counted at the 5th day of the tests.

For `CCN1C(=O)[C@@H]2[C@H](N(CC)C1=O)C(C)(C)C2(C)C` (relative stereo) [TI-16 Substance, 2,4-diethyl-7,7,8,8-tetramethyl-cis-2,4-diaza-bicyclo{4.2.0}octane-3,5-dione], the IC50 [1] was greater than 500 µg/mL, the “Quotient of minimum denaturation concentration divided by IC50, Virus No. 3” value [1] was less than 1.0 and the IC50 [2] was greater than 250 µg/mL. For the same compound, the “Quotient of minimum denaturation concentration divided by IC50, Virus No. 2” value [2] was less than 1.0, the MCC at 48 h (in vitro [3]) was 500 µg/mL and the “Percent of the number of the cells showing the NBT-reducing ability after treatment with test compound at IC50 concentration” value [4] was 69%. The IC50 [5] was 375 µg/mL (≈ 1490 µM), the “Quotient of minimum denaturation concentration divided by IC50, Virus No. 1” value [5] was 2.67 and the IC50 [6] was greater than 250 µg/mL. The “Quotient of minimum denaturation concentration divided by IC50, Virus No. 4” value [6] was less than 1.0, the MCC at 48 h (in vitro [7]) was 500 µg/mL and the IC50 [8] was 375 µg/mL (≈ 1490 µM). For the same compound, the “Quotient of minimum denaturation concentration divided by IC50, Virus No. 5” value [8] was 1.33, the MCC at 48 h (in vitro [9]) was 250 µg/mL and the MCC at 48 h (in vitro [10]) was 1000 µg/mL. For the same compound, the IC50 [11] was 17 µg/mL (≈ 67.4 µM).
For `CN1C(=O)[C@@H]2[C@H](N(C)C1=O)C(C)(C)C2(C)C` (relative stereo) [TI-27 Substance, 2,4,7,7,8,8-hexamethyl-cis-2,4-diaza-bicyclo{4.2.0}octane-3,5-dione], the IC50 [1] was greater than 500 µg/mL, the “Quotient of minimum denaturation concentration divided by IC50, Virus No. 3” value [1] was less than 1.0 and the IC50 [2] was greater than 250 µg/mL. For the same compound, the “Quotient of minimum denaturation concentration divided by IC50, Virus No. 2” value [2] was less than 1.0, the MCC at 48 h (in vitro [3]) was 250 µg/mL and the “Percent of the number of the cells showing the NBT-reducing ability after treatment with test compound at IC50 concentration” value [4] was 51%. For the same compound, the IC50 [5] was 188 µg/mL (≈ 838 µM), the “Quotient of minimum denaturation concentration divided by IC50, Virus No. 1” value [5] was 5.32 and the IC50 [6] was greater than 250 µg/mL. The “Quotient of minimum denaturation concentration divided by IC50, Virus No. 4” value [6] was less than 1.0, the MCC at 48 h (in vitro [7]) was 500 µg/mL and the IC50 [8] was greater than 500 µg/mL. For the same compound, the “Quotient of minimum denaturation concentration divided by IC50, Virus No. 5” value [8] was less than 1.0, the MCC at 48 h (in vitro [9]) was 250 µg/mL and the “Number of surviving mice/number of mice tested” value (mice; 0.02 mg/mouse i.p.) was 5/5. For the same compound, the “Number of surviving mice/number of mice tested” value (mice; 0.078 mg/mouse i.p.) was 5/5, the “Number of surviving mice/number of mice tested” value (mice; 0.313 mg/mouse i.p.) was 5/5 and the “Number of surviving mice/number of mice tested” value (mice; 1.25 mg/mouse i.p.) was 1/5. For the same compound, the “Number of surviving mice/number of mice tested” value (mice; 5 mg/mouse i.p.) was 0/5, the MCC at 48 h (in vitro [10]) was 1000 µg/mL and the IC50 [11] was 35 µg/mL (≈ 156 µM).
With `Nc1nc2c(ncn2COCCO)c(=O)[nH]1` [Acyclovir, reference compound] the MCC at 48 h (in vitro [7]) was greater than 1000 µg/mL, the IC50 [8] was 1.17 µg/mL (≈ 5.2 µM) and the “Quotient of minimum denaturation concentration divided by IC50, Virus No. 5” value [8] was greater than 855.
With `NC12CC3CC(CC(C3)C1)C2` [Amantadine, reference compound] the IC50 [5] was 50 µg/mL (≈ 331 µM), the “Quotient of minimum denaturation concentration divided by IC50, Virus No. 1” value [5] was 5.0 and the MCC at 48 h (in vitro [10]) was 250 µg/mL.
